Our source for the IC50 values is BindingDB's records for patent US20250059218 (The Leland Stanford Junior University, 2025).

The test concerns the target T1, Ectonucleotide pyrophosphatase/phosphodiesterase family member 1 (Mus musculus, UniProt P06802).
T1 sequence (P06802 whole entry): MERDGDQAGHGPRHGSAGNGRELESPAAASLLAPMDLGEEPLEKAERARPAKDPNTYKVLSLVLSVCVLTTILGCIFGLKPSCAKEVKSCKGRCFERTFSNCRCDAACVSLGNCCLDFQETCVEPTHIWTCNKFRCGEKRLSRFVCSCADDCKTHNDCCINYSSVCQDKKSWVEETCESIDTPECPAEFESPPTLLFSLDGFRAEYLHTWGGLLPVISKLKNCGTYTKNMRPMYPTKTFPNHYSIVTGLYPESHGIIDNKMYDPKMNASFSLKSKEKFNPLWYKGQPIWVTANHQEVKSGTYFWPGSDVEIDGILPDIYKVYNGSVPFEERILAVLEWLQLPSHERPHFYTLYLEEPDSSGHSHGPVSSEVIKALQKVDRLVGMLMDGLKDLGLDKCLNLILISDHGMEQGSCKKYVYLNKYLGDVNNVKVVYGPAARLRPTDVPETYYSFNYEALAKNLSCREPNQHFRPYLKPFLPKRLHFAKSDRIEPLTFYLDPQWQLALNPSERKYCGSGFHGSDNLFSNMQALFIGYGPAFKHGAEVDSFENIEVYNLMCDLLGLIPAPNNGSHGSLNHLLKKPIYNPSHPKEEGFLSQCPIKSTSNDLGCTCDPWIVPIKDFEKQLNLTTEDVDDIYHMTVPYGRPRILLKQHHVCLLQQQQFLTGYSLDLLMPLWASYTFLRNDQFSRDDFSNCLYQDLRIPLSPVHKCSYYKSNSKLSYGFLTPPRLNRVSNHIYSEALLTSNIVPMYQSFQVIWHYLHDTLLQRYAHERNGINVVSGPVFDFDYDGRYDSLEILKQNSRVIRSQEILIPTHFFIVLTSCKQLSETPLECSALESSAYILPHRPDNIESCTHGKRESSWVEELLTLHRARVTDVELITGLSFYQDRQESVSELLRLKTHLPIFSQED
As to the kind of experiment: ENPP1 Enzyme Activity Assay. The procedure:
The AMP degradation product was converted to ATP, which was detected using luciferase. To achieve this, an enzyme mixture of polyphosphate:AMP phosphotransferase (PAP) and myokinase was prepared according to Goueli et al. in EP2771480. Briefly, PAP was diluted to 2 mg/mL in buffer containing 50 mM Tris pH 7.5, 0.1% NP-40. Myokinase was diluted to 2 KU/mL in buffer containing 3.2 mM ammonium sulfate pH 6.0, 1 mM EDTA, and 4 mM polyphosphate. The heat-inactivated ENPP1 reaction was incubated with PAP (0.01 μg/μL) and myokinase (0.0075 U/μL) in buffer containing 40 mM Tris pH 7.5, 0.05 mg/mL Prionex, 5 mM MgCl2, 20 μM polyphosphate, and 0.15 g/L phenol red (for ease of pipetting) for 3 hours (total reaction volume=20 μL). CellTiterGlo (20 uL) was added to the reaction according to manufacturer's protocol and luminescence was measured.
In general, IC50 refers to the concentration needed to halve the response being measured. As for `COc1ccc2c(NCc3ccc(B(O)O)cc3)ncnc2c1` [US20250059218, Compound 103], the concentration for half-maximal inhibition (IC50) was above 100 nM.
In turn, `COc1ccc2c(N3CCC(CCP(=O)(O)O)CC3)c(C#N)cnc2c1` [US20250059218, Compound 43] showed an IC50 below 50 nM.
Under `COc1ccc2c(N3CCC(CCCP(=O)(O)O)CC3)c(C#N)cnc2c1` [US20250059218, Compound 209] stands below 50 nM; under `COc1cc2nccc(N3CCC(CCP(=O)(O)O)CC3)c2cc1OC` [US20250059218, Compound 201], above 100 nM.
Take `COc1ccc2c(N3CCC(CCOP(O)(O)=S)CC3)c(C#N)cnc2c1` [US20250059218, Compound 215]: the IC50 is above 100 nM.
Under `COc1cccc2c(NCc3ccc(B(O)O)cc3)c(C#N)cnc12` [US20250059218, Compound 214] stands above 100 nM.
The same measure for `COc1cc2ncc(C#N)c(N3CCC(CCP(=O)(O)O)CC3)c2cc1OC` [US20250059218, Compound 42]: below 50 nM; for `COc1cccc2c(N3CCC(COP(O)(O)=S)CC3)c(C#N)cnc12` [US20250059218, Compound 50]: above 100 nM.
The same measure for `COc1ccc2c(N3CCC(COP(O)(O)=S)CC3)c(C#N)cnc2c1` [US20250059218, Compound 48]: above 100 nM; for `COc1cc2ncc(N)c(N3CCC(CCP(=O)(O)O)CC3)c2cc1OC` [US20250059218, Compound 205]: below 50 nM; for `COc1cccc2c(N3CCC(CCB(O)O)CC3)c(C#N)cnc12` [US20250059218, Compound 216]: above 100 nM.
As for `COc1cccc2c(NCc3ccc(P(=O)(O)O)cc3)nc(/C=C/c3cccnc3)nc12` [US20250059218, Compound 53], the IC50 is below 50 nM.
Under `COc1cccc2c(NCc3ccc(P(=O)(O)O)cc3)c(C#N)cnc12` [US20250059218, Compound 52] stands below 50 nM.
The same measure for `COc1cc2ncc(C#N)c(NCc3ccc(P(=O)(O)O)cc3)c2cc1OC` [US20250059218, Compound 203]: below 50 nM; for `COc1ccc2c(NCc3ccc(B(O)O)cc3)c(C#N)cnc2c1` [US20250059218, Compound 213]: above 100 nM.
The same measure for `COc1ccc2c(N3CCC(CCB(O)O)CC3)c(C#N)cnc2c1` [US20250059218, Compound 217]: above 100 nM; for `COc1cccc2c(NCc3ccc(C(=O)NO)cc3)c(C#N)cnc12` [US20250059218, Compound 220]: above 100 nM.
With `COc1ccc2c(NCc3ccc(P(=O)(O)O)cc3)c(C#N)cnc2c1` [US20250059218, Compound 204], the 50% inhibitory concentration (IC50) is below 50 nM.
The same measure for `COc1cc2ncnc(NCc3ccc(P(=O)(O)O)cc3)c2cc1OC` [US20250059218, Compound 4]: below 50 nM.
The same measure for `COc1cc2ncc(F)c(N3CCC(CCP(=O)(O)O)CC3)c2cc1OC` [US20250059218, Compound 208]: above 100 nM; for `COc1cc2ncnc(NCc3ccc(CP(=O)(O)O)cc3)c2cc1OC` [US20250059218, Compound 5]: below 50 nM; for `COc1cccc2c(N3CCC(CCCP(=O)(O)O)CC3)c(C#N)cnc12` [US20250059218, Compound 210]: below 50 nM.
The same measure for `COc1cc(OC)c2ncc(C#N)c(N3CCC(CCP(=O)(O)O)CC3)c2c1` [US20250059218, Compound 46]: above 100 nM.
The molecule `COc1cccc2c(NCc3ccc(P(=O)(O)O)cc3)ncnc12` [US20250059218, Compound 36] came in with a half-inhibitory concentration (IC50) below 50 nM.
In turn, `COc1cc2ncc3ncn(Cc4ccc(CP(=O)(O)O)cc4)c3c2cc1OC` [US20250059218, Compound 218] gave a half-inhibitory concentration (IC50) above 100 nM.
Under `COc1ccc2c(NCc3ccc(C(=O)NO)cc3)c(C#N)cnc2c1` [US20250059218, Compound 219] stands above 100 nM; under `COc1cccc2c(NCc3ccc(C(=O)NO)cc3)ncnc12` [US20250059218, Compound 104], above 100 nM.
The same measure for `COc1cc2ncnc(Nc3ccc(P(=O)(O)O)cc3)c2cc1OC` [US20250059218, Compound 2]: above 100 nM; for `COc1cccc2c(NCc3ccc(CP(=O)(O)O)cc3)c(C#N)cnc12` [US20250059218, Compound 211]: below 50 nM; for `COc1cc2ncnc(NCc3ccc(C(=O)NO)cc3)c2cc1OC` [US20250059218, Compound 101]: above 100 nM.
Under `COc1cccc2c(NCc3ccc(B(O)O)cc3)ncnc12` [US20250059218, Compound 102] stands below 50 nM; under `COc1cccc2c(N3CCC(CCP(=O)(O)O)CC3)c(C#N)cnc12` [US20250059218, Compound 45], below 50 nM.
For `COc1cc2ncc(Cl)c(N3CCC(CCP(=O)(O)O)CC3)c2cc1OC` [US20250059218, Compound 207], the IC50 is above 100 nM.
